The first assay deals with recombinant NL4-3 virus (Renilla luciferase in nef, Gag P373S; NLRluc) in MT-2 cells. Description: whole plant or invertebrate. In kind it is cell-based, HIV. The settings on record: Renilla, NL43. The gist of the method: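 Inhibitor potency against the reporter virus comes from reduced luciferase activity in infected MT-2 cells exposed to a dilution series of compound over 4-5 days.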
In the case of `C=C(C)[C@@H]1CC[C@]2(NCCN3CCS(=O)(=O)CC3)CC[C@]3(C)[C@H](CC[C@@H]4[C@@]5(C)CC=C(c6ccc(C(=O)NS(=O)(=O)C7CC7)cc6)C(C)(C)[C@@H]5CC[C@]43C)[C@@H]12` [Example 164, N-(cyclopropylsulfonyl)-4-((1R,3aS,5aR,5bR,7aR,11aS,11bR,13aR,13bR)-3a-((2-(1,1-dioxido-4-thiomorpholinyl)ethyl)amino)-1-isopropenyl-5a,5b,8,8,11a-pentamethyl-2,3,3a,4,5,5a,5b,6,7,7a,8,11,11a,11b,12,13,13a,13b-octadecahydro-1H-cyclopenta[a]chrysen-9-yl)benzamide], the EC50 (in general, the concentration giving half of the maximal effect) was less than 100 nM.

The same assay, now with this note: Renilla, NL43, luciferase activity in cells infected for 4-5 days with NLRluc recombinants, serial dilutions of inhibitor; class symbols (key in Table 1); read-out: EC50.
With `C=C(C)[C@@H]1CC[C@]2(NCC3CCCN(C(=O)OC(C)(C)C)C3)CC[C@]3(C)[C@H](CC[C@@H]4[C@@]5(C)CC=C(c6ccc(C(=O)O)cc6)C(C)(C)[C@@H]5CC[C@]43C)[C@@H]12` (stereo partly drawn) [Example 153, 4-((1R,3aS,5aR,5bR,7aR,11aS,11bR,13aR,13bR)-3a-((1-(tert-butoxycarbonyl)piperidin-3-yl)methylamino)-5a,5b,8,8,11a-pentamethyl-1-(prop-1-en-2-yl)-2,3,3a,4,5,5a,5b,6,7,7a,8,11,11a,11b,12,13,13a,13b-octadecahydro-1H-cyclopenta[a]chrysen-9-yl)benzoic acid], the EC50 was more than 100 nM.

In the case of `C=C(C)[C@@H]1CC[C@]2(NCC3CCCNC3)CC[C@]3(C)[C@H](CC[C@@H]4[C@@]5(C)CC=C(c6ccc(C(=O)O)cc6)C(C)(C)[C@@H]5CC[C@]43C)[C@@H]12` (stereo partly drawn) [Example 154, 4-((1R,3aS,5aR,5bR,7aR,11aS,11bR,13aR,13bR)-5a,5b,8,8,11a-pentamethyl-3a-(piperidin-3-ylmethylamino)-1-(prop-1-en-2-yl)-2,3,3a,4,5,5a,5b,6,7,7a,8,11,11a,11b,12,13,13a,13b-octadecahydro-1H-cyclopenta[a]chrysen-9-yl)benzoic acid], the EC50 is less than 100 nM.

Take `C=C(C)[C@@H]1CC[C@]2(NCc3ccco3)CC[C@]3(C)[C@H](CC[C@@H]4[C@@]5(C)CC=C(c6ccc(C(=O)O)cc6)C(C)(C)[C@@H]5CC[C@]43C)[C@@H]12` [Example 155, 4-((1R,3aS,5aR,5bR,7aR,11aS,11bR,13aR,13bR)-3a-(furan-2-ylmethylamino)-5a,5b,8,8,11a-pentamethyl-1-(prop-1-en-2-yl)-2,3,3a,4,5,5a,5b,6,7,7a,8,11,11a,11b,12,13,13a,13b-octadecahydro-1H-cyclopenta[a]chrysen-9-yl)benzoic acid]: the EC50 is less than 100 nM.

`C=C(C)[C@@H]1CC[C@]2(NCC3CC3C(=O)O)CC[C@]3(C)[C@H](CC[C@@H]4[C@@]5(C)CC=C(c6ccc(C(=O)O)cc6)C(C)(C)[C@@H]5CC[C@]43C)[C@@H]12` (stereo partly drawn) [Example 157, 4-((1R,3aS,5aR,5bR,7aR,11aS,11bR,13aR,13bR)-3a-((2-carboxycyclopropyl)methylamino)-5a,5b,8,8,11a-pentamethyl-1-(prop-1-en-2-yl)-2,3,3a,4,5,5a,5b,6,7,7a,8,11,11a,11b,12,13,13a,13b-octadecahydro-1H-cyclopenta[a]chrysen-9-yl)benzoic acid]: the EC50 is less than 100 nM.

Consider `C=C(C)[C@@H]1CC[C@]2(NCc3ccsc3)CC[C@]3(C)[C@H](CC[C@@H]4[C@@]5(C)CC=C(c6ccc(C(=O)O)cc6)C(C)(C)[C@@H]5CC[C@]43C)[C@@H]12` [Example 158, 4-((1R,3aS,5aR,5bR,7aR,11aS,11bR,13aR,13bR)-5a,5b,8,8,11a-pentamethyl-1-(prop-1-en-2-yl)-3a-(thiophen-3-ylmethylamino)-2,3,3a,4,5,5a,5b,6,7,7a,8,11,11a,11b,12,13,13a,13b-octadecahydro-1H-cyclopenta[a]chrysen-9-yl)benzoic acid], for which the EC50 was less than 100 nM.

With `C=C(C)[C@@H]1CC[C@]2(NCCN3CCOCC3)CC[C@]3(C)[C@H](CC[C@@H]4[C@@]5(C)CC=C(c6ccc(C(=O)O)cc6)C(C)(C)[C@@H]5CC[C@]43C)[C@@H]12` [Example 159, 4-((1R,3aS,5aR,5bR,7aR,11aS,11bR,13aR,13bR)-5a,5b,8,8,11a-pentamethyl-3a-(2-morpholinoethylamino)-1-(prop-1-en-2-yl)-2,3,3a,4,5,5a,5b,6,7,7a,8,11,11a,11b,12,13,13a,13b-octadecahydro-1H-cyclopenta[a]chrysen-9-yl)benzoic acid], the EC50 was less than 100 nM.

Take `C=C(C)[C@@H]1CC[C@]2(N(CCN3CCOCC3)CCN3CCOCC3)CC[C@]3(C)[C@H](CC[C@@H]4[C@@]5(C)CC=C(c6ccc(C(=O)O)cc6)C(C)(C)[C@@H]5CC[C@]43C)[C@@H]12` [Example 160, 4-((1R,3aS,5aR,5bR,7aR,11aS,11bR,13aR,13bR)-3a-(bis(2-morpholinoethyl)amino)-5a,5b,8,8,11a-pentamethyl-1-(prop-1-en-2-yl)-2,3,3a,4,5,5a,5b,6,7,7a,8,11,11a,11b,12,13,13a,13b-octadecahydro-1H-cyclopenta[a]chrysen-9-yl)benzoic acid]: the EC50 is less than 100 nM.

`C=C(C)[C@@H]1CC[C@]2(NCc3cscn3)CC[C@]3(C)[C@H](CC[C@@H]4[C@@]5(C)CC=C(c6ccc(C(=O)O)cc6)C(C)(C)[C@@H]5CC[C@]43C)[C@@H]12` [Example 161, 4-((1R,3aS,5aR,5bR,7aR,11aS,11bR,13aR,13bR)-5a,5b,8,8,11a-pentamethyl-1-(prop-1-en-2-yl)-3a-(thiazol-4-ylmethylamino)-2,3,3a,4,5,5a,5b,6,7,7a,8,11,11a,11b,12,13,13a,13b-octadecahydro-1H-cyclopenta[a]chrysen-9-yl)benzoic acid]: the EC50 was less than 100 nM.

Regarding `C=C(C)[C@@H]1CC[C@]2(NCc3csc(C)n3)CC[C@]3(C)[C@H](CC[C@@H]4[C@@]5(C)CC=C(c6ccc(C(=O)O)cc6)C(C)(C)[C@@H]5CC[C@]43C)[C@@H]12` [Example 162, 4-((1R,3aS,5aR,5bR,7aR,11aS,11bR,13aR,13bR)-5a,5b,8,8,11a-pentamethyl-3a-((2-methylthiazol-4-yl)methylamino)-1-(prop-1-en-2-yl)-2,3,3a,4,5,5a,5b,6,7,7a,8,11,11a,11b,12,13,13a,13b-octadecahydro-1H-cyclopenta[a]chrysen-9-yl)benzoic acid], the EC50 is less than 100 nM.

For the molecule `CC(C)[C@@H]1CC[C@]2(NCCN3CCS(=O)(=O)CC3)CC[C@]3(C)[C@H](CC[C@@H]4[C@@]5(C)CC=C(c6ccc(C(=O)O)cc6)C(C)(C)[C@@H]5CC[C@]43C)[C@@H]12` [Example 163, 4-((1S,3aS,5aR,5bR,7aR,11aS,11bR,13aR,13bR)-3a-((2-(1,1-dioxido-4-thiomorpholinyl)ethyl)amino)-1-isopropyl-5a,5b,8,8,11a-pentamethyl-2,3,3a,4,5,5a,5b,6,7,7a,8,11,11a,11b,12,13,13a,13b-octadecahydro-1H-cyclopenta[a]chrysen-9-yl)benzoic acid], the EC50 was less than 100 nM.

As for `C=C(C)[C@@H]1CC[C@]2(NCCCN3CCOCC3)CC[C@]3(C)[C@H](CC[C@@H]4[C@@]5(C)CC=C(c6ccc(C(=O)O)cc6)C(C)(C)[C@@H]5CC[C@]43C)[C@@H]12` [Example 165, 4-((1R,3aS,5aR,5bR,7aR,11aS,11bR,13aR,13bR)-5a,5b,8,8,11a-pentamethyl-3a-(3-morpholinopropylamino)-1-(prop-1-en-2-yl)-2,3,3a,4,5,5a,5b,6,7,7a,8,11,11a,11b,12,13,13a,13b-octadecahydro-1H-cyclopenta[a]chrysen-9-yl)benzoic acid], the EC50 is less than 100 nM.

For `C=C(C)[C@@H]1CC[C@]2(NCCc3ccncc3)CC[C@]3(C)[C@H](CC[C@@H]4[C@@]5(C)CC=C(c6ccc(C(=O)O)cc6)C(C)(C)[C@@H]5CC[C@]43C)[C@@H]12` [Example 166, 4-((1R,3aS,5aR,5bR,7aR,11aS,11bR,13aR,13bR)-5a,5b,8,8,11a-pentamethyl-1-(prop-1-en-2-yl)-3a-((2-(pyridin-4-yl)ethyl)amino)-2,3,3a,4,5,5a,5b,6,7,7a,8,11,11a,11b,12,13,13a,13b-octadecahydro-1H-cyclopenta[a]chrysen-9-yl)benzoic acid], the EC50 is less than 100 nM.

`C=C(C)[C@@H]1CC[C@]2(NCCN3CCSCC3)CC[C@]3(C)[C@H](CC[C@@H]4[C@@]5(C)CC=C(c6ccc(C(=O)O)cc6)C(C)(C)[C@@H]5CC[C@]43C)[C@@H]12` [Example 168, 4-((1R,3aS,5aR,5bR,7aR,11aS,11bR,13aR,13bR)-5a,5b,8,8,11a-pentamethyl-1-(prop-1-en-2-yl)-3a-(2-thiomorpholinoethylamino)-2,3,3a,4,5,5a,5b,6,7,7a,8,11,11a,11b,12,13,13a,13b-octadecahydro-1H-cyclopenta[a]chrysen-9-yl)benzoic acid]: the EC50 was less than 100 nM.

Still in this assay, the particulars now being: Renilla, NL43, luciferase activity in cells infected for 4-5 days with NLRluc recombinants, serial dilutions of inhibitor; numeric values; read-out: EC50.
With `C=C(C)[C@@H]1CC[C@]2(NCC(OC)OC)CC[C@]3(C)[C@H](CC[C@@H]4[C@@]5(C)CC=C(c6ccc(C(=O)O)cc6)C(C)(C)[C@@H]5CC[C@]43C)[C@@H]12` [Example 156, 4-((1R,3aS,5aR,5bR,7aR,11aS,11bR,13aR,13bR)-3a-(2,2-dimethoxyethylamino)-5a,5b,8,8,11a-pentamethyl-1-(prop-1-en-2-yl)-2,3,3a,4,5,5a,5b,6,7,7a,8,11,11a,11b,12,13,13a,13b-octadecahydro-1H-cyclopenta[a]chrysen-9-yl)benzoic acid], the EC50 was 120 nM.

As to `C=C(C)[C@@H]1CC[C@]2(N(CCN3CCCC3)CCN3CCCC3)CC[C@]3(C)[C@H](CC[C@@H]4[C@@]5(C)CC=C(c6ccc(C(=O)O)cc6)C(C)(C)[C@@H]5CC[C@]43C)[C@@H]12` [Example 167, 4-((1R,3aS,5aR,5bR,7aR,11aS,11bR,13aR,13bR)-3a-(bis(2-(pyrrolidin-1-yl)ethyl)amino)-5a,5b,8,8,11a-pentamethyl-1-(prop-1-en-2-yl)-2,3,3a,4,5,5a,5b,6,7,7a,8,11,11a,11b,12,13,13a,13b-octadecahydro-1H-cyclopenta[a]chrysen-9-yl)benzoic acid], the EC50 came to 4 nM.

Source of the values: US20140343000A1 (priority 2011, published 2014).
